This assay deals with T1, glucokinase (GK) (Homo sapiens, UniProt P35557).
T1 construct: I.D. No. 1 corresponds to residues 12-465 of glucokinase; made in house; host or cells: E. coli DH10b-T1r
T1 sequence (P35557 with tags, fused parts or gaps isoform P35557-2): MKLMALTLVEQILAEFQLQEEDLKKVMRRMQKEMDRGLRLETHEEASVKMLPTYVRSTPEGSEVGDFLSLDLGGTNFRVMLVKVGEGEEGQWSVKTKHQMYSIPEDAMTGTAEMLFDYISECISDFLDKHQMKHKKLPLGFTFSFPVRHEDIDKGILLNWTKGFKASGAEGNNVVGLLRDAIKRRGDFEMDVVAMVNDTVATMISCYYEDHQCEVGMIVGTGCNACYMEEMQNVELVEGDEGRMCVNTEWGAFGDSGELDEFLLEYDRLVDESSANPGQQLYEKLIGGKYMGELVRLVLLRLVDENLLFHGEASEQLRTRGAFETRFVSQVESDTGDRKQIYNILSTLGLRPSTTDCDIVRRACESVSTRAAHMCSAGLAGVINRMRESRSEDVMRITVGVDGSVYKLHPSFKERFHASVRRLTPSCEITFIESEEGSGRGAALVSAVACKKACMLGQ
Put plainly: enzymatic glucokinase activity assay (ATP consumption, KinaseGlo luminescence). The class given is biochemical. As to conditions: recombinant GK residues 12-465; 5 μM ATP, 5 mM Glucose; Kact = concentration that displays 50% of the maximal increase in GK activity; read-out: pKact. The procedure, abridged:
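Recombinant human glucokinase expressed in E. coli was run in 25 mM Hepes pH 7.2 with 10 mM MgCl2, 1 mM DTT, 5 μM ATP, 5 mM glucose and 2% DMSO for 60 min at room temperature. Remaining ATP was read by KinaseGlo luminescence; pKact came from non-linear curve fits.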
A general note: Kinase-Glo reads ATP consumption through a luciferase reaction.

`Cc1cc(S(=O)(=O)C2CC2)cc(=O)n1C(CC(C)(C)C)C(=O)Nc1ncc(Cl)s1` (stereo not shown) [Example 25, N-(5-chlorothiazol-2-yl)-2-(4-(cyclopropylsulfonyl)-6-methyl-2-oxopyridin-1(2H)-yl)-4,4-dimethylpentanamide]: the EC50 is below 1.58 µM. As for `O=C(Nc1nc2ccc(F)cc2s1)C(CC1CCOCC1)n1ccc(S(=O)(=O)C2CC2)cc1=O` (stereo not shown) [Example 131, 2-(4-(cyclopropylsulfonyl)-2-oxopyridin-1(2H)-yl)-N-(6-fluorobenzo[d]thiazol-2-yl)-3-(tetrahydro-2H-pyran-4-yl)propanamide], the EC50 was in the range of 1.58 to 15.8 µM. To `CS(=O)(=O)c1ccn(C(Cc2cc(F)ccc2Cl)C(=O)Nc2ncc(Cl)s2)c(=O)c1` (stereo not shown) [Example 9, 3-(2-chloro-5-fluorophenyl)-N-(5-chlorothiazol-2-yl)-2-(4-(methylsulfonyl)-2-oxopyridin-1(2H)-yl)propanamide] belongs above 15.8 µM. For `COC(C)(C)c1cnc(NC(=O)[C@@H](CC2CCOCC2)n2ccc(S(=O)(=O)C3CC3)cc2=O)s1` [Example 132, (R)-2-(4-(cyclopropylsulfonyl)-2-oxopyridin-1(2H)-yl)-N-(5-(2-methoxypropan-2-yl)thiazol-2-yl)-3-(tetrahydro-2H-pyran-4-yl)propanamide] the value was 1.58 to 15.8 µM; for `Cc1c(S(=O)(=O)C2CCCC2)c(C)c(=O)n(C(CC2CCOCC2)C(=O)Nc2ncc(Cl)s2)c1C` (stereo not shown) [Example 118, N-(5-chlorothiazol-2-yl)-2-(4-(cyclopentylsulfonyl)-3,5,6-trimethyl-2-oxopyridin-1(2H)-yl)-3-(tetrahydro-2H-pyran-4-yl)propanamide], below 1.58 µM.

As for `O=C(Nc1ncc(F)s1)[C@@H](CC1CCOCC1)n1cc(Cl)c(S(=O)(=O)C2CC2)cc1=O` [Example 197, (R)-2-(5-chloro-4-(cyclopropylsulfonyl)-2-oxopyridin-1(2H)-yl)-N-(5-fluorothiazol-2-yl)-3-(tetrahydro-2H-pyran-4-yl)propanamide], the EC50 is above 15.8 µM.

On to `Cc1cc(S(=O)(=O)C2CC2)c(Cl)c(=O)n1[C@@H](CC1CCCCC1)C(=O)Nc1ncc(Cl)s1` [Example 77, (S)-2-(3-chloro-4-(cyclopropylsulfonyl)-6-methyl-2-oxopyridin-1(2H)-yl)-N-(5-chlorothiazol-2-yl)-3-cyclohexylpropanamide], for which the EC50 was below 1.58 µM. To `CN(C)C(=O)CN1CCN(Cc2cnc(NC(=O)C(CC3CCOCC3)n3ccc(S(=O)(=O)C4CC4)cc3=O)s2)CC1` (stereo not shown) [Example 150, 2-(4-(cyclopropylsulfonyl)-2-oxopyridin-1(2H)-yl)-N-(5-((4-(2-(dimethylamino)-2-oxoethyl)piperazin-1-yl)methyl)thiazol-2-yl)-3-(tetrahydro-2H-pyran-4-yl)propanamide] belongs above 15.8 µM. For `O=C(Nc1ncc(Cl)s1)[C@H](CC1CCOCC1)n1ccc(S(=O)(=O)C2CC2)cc1=O` [Example 30, (S)-N-(5-chlorothiazol-2-yl)-2-(4-(cyclopropylsulfonyl)-2-oxopyridin-1(2H)-yl)-3-(tetrahydro-2H-pyran-4-yl)propanamide] the value was below 1.58 µM; for `Cc1cc(S(=O)(=O)Cc2ccco2)cc(=O)n1C(CC1CCCCC1)C(=O)Nc1nccs1` (stereo not shown) [Example 81, 3-cyclohexyl-2-(4-(furan-2-ylmethylsulfonyl)-6-methyl-2-oxopyridin-1(2H)-yl)-N-(thiazol-2-yl)propanamide], below 1.58 µM; for `Cc1cc(-c2cccc(Cl)c2)cc(=O)n1[C@@H](CC1CCCCC1)C(=O)Nc1nccs1` [Example 92, (S)-2-(4-(3-chlorophenyl)-6-methyl-2-oxopyridin-1(2H)-yl)-3-cyclohexyl-N-(thiazol-2-yl)propanamide], above 15.8 µM. To `O=C(Nc1ncc(Cl)s1)[C@@H](CC1CCOCC1)n1ccc(S(=O)(=O)C2CC2)cc1=O` [Example 29, (R)-N-(5-chlorothiazol-2-yl)-2-(4-(cyclopropylsulfonyl)-2-oxopyridin-1(2H)-yl)-3-(tetrahydro-2H-pyran-4-yl)propanamide] belongs above 15.8 µM; to `COc1ccc(Cl)cc1-c1cc(C)n([C@@H](CC2CCCCC2)C(=O)Nc2nccs2)c(=O)c1` [Example 103, (S)-2-(4-(5-chloro-2-methoxyphenyl)-6-methyl-2-oxopyridin-1(2H)-yl)-3-cyclohexyl-N-(thiazol-2-yl)propanamide], above 15.8 µM; to `CN1CCN(Cc2cnc(NC(=O)C(CC3CCOCC3)n3ccc(S(=O)(=O)C4CC4)cc3=O)s2)CC1` (stereo not shown) [Example 147, 2-(4-(cyclopropylsulfonyl)-2-oxopyridin-1(2H)-yl)-N-(5-((4-methylpiperazin-1-yl)methyl)thiazol-2-yl)-3-(tetrahydro-2H-pyran-4-yl)propanamide], above 15.8 µM. As to `O=C(Nc1ncc(CN2CCOCC2)s1)C(CC1CCOCC1)n1ccc(S(=O)(=O)C2CC2)cc1=O` (stereo not shown) [Example 145, 2-(4-(cyclopropylsulfonyl)-2-oxopyridin-1(2H)-yl)-N-(5-(morpholinomethyl)thiazol-2-yl)-3-(tetrahydro-2H-pyran-4-yl)propanamide], the EC50 is above 15.8 µM. Consider `O=C(Nc1ncc(Cc2ccc(F)cc2)s1)C(CC1CCOCC1)n1ccc(S(=O)(=O)C2CC2)cc1=O` (stereo not shown) [Example 138, 2-(4-(cyclopropylsulfonyl)-2-oxopyridin-1(2H)-yl)-N-(5-(4-fluorobenzyl)thiazol-2-yl)-3-(tetrahydro-2H-pyran-4-yl)propanamide], for which the EC50 fell in the range of 1.58 to 15.8 µM.

For `Cn1ccc(NC(=O)C(CC2CCOCC2)n2ccc(S(=O)(=O)C3CC3)cc2=O)n1` (stereo not shown) [Example 66, 2-(4-(cyclopropylsulfonyl)-2-oxopyridin-1(2H)-yl)-N-(1-methyl-1H-pyrazol-3-yl)-3-(tetrahydro-2H-pyran-4-yl)propanamide], the EC50 was above 15.8 µM. Consider `Cc1cc(-c2ccccc2Cl)cc(=O)n1[C@@H](CC1CCCCC1)C(=O)Nc1nccs1` [Example 91, (S)-2-(4-(2-chlorophenyl)-6-methyl-2-oxopyridin-1(2H)-yl)-3-cyclohexyl-N-(thiazol-2-yl)propanamide], for which the EC50 was above 15.8 µM.

Consider `Cc1cc(S(=O)(=O)C2CCCC2)cc(=O)n1[C@@H](CC1CCOCC1)C(=O)Nc1ncc(Cl)s1` [Example 38, (S)-N-(5-chlorothiazol-2-yl)-2-(4-(cyclopentylsulfonyl)-6-methyl-2-oxopyridin-1(2H)-yl)-3-(tetrahydro-2H-pyran-4-yl)propanamide], for which the EC50 is below 1.58 µM. For `O=C(Nc1ncc(F)s1)[C@@H](CC1CCOCC1)n1ccc(S(=O)(=O)C2CC2)cc1=O` [Example 36, (R)-2-(4-(cyclopropylsulfonyl)-2-oxopyridin-1(2H)-yl)-N-(5-fluorothiazol-2-yl)-3-(tetrahydro-2H-pyran-4-yl)propanamide] the value was above 15.8 µM; for `Cc1cc(S(=O)(=O)C2CCOCC2)cc(=O)n1[C@@H](CC1CCCC1)C(=O)Nc1ncc(Cl)s1` [Example 191, (S)-N-(5-chlorothiazol-2-yl)-3-cyclopentyl-2-(6-methyl-2-oxo-4-(tetrahydro-2H-pyran-4-ylsulfonyl)pyridin-1(2H)-yl)propanamide], 1.58 to 15.8 µM. To `COc1cccc(CC(C(=O)Nc2nccs2)n2c(C)cc(S(=O)(=O)C3CCCC3)cc2=O)c1` (stereo not shown) [Example 20, 2-(4-(cyclopentylsulfonyl)-6-methyl-2-oxopyridin-1(2H)-yl)-3-(3-methoxyphenyl)-N-(thiazol-2-yl)propanamide] belongs above 15.8 µM.
